Laboratory results as given in PMC4132815, “Structure and Function of the Bacterial Heterodimeric ABC Transporter CydDC” (The Journal of Biological Chemistry, 2014).

What was measured:
CydDC (C-His6-CydDC) [1] = target: T1, CydDC (C-His6-CydDC) (Escherichia coli, UniProt P23886+P29018, P29018:INS2NS); test: stimulation of ATPase activity (colorimetric Pi release); assay type: biochemical; conditions: peak 2 in 0.02% DDM; 5 mM compound; 2 mM ATP, 10 mM MgCl2, pH 7.5, 37 °C; activator
T1 construct: gene cydD; full-length heterodimer (64 + 63 kDa); plasmid pHX100 in E. coli BL21

CydDC (C-His6-CydDC) [2] = target: T1, CydDC (C-His6-CydDC); test: as above; assay type: biochemical

| SMILES | % of basal ATPase activity at 5 mM (CydDC (C-His6-CydDC) [1]) | EC50 (CydDC (C-His6-CydDC) [2]) [µM] |
| --- | --- | --- |
| N[C@@H](Cc1cnc[nH]1)C(=O)O [L-histidine] | Significant changes in ATPase activity were invoked only with thiols and L-histidine | – |
| N[C@@H](CS)C(=O)O [cysteine] | – | 26 ± 3 |
